Results: patent publication US8604059B2, “Thioxanthene derivatives for the treatment of infectious diseases” (BKG Pharma APS, priority 2009, dated 2013)
Values joined by “and” are separate entries in the source; they are usually repeats but may differ in a detail not shown here. Identical values can stand only once.

Experiments:
[1] = test system: Enterococcus faecalis ENT 28 (VRE); assay: Mouse peritonitis model, neutropenic NMRI mice, enhancing effect with linezolid; type: in vivo
Procedure: A multiresistant clinical isolate of Enterococcus faecalis ENT 28 (VRE) from human urine was used.
Female NMRI mice (age, approximately 6 to 8 weeks; weight, 30±2 g) were used for the mouse […] peritonitis model (as described below).
In order to detect any synergistic effect, infected mice were treated with sub-therapeutic doses of each test compound alone or a mixture of the two compounds.
Bacterial suspensions were prepared from fresh overnight cultures (made from frozen stock cultures) on 5% blood agar plates as described above. The inoculum for the mouse peritonitis model was prepared immediately before use and was adjusted at 540 nm of giving a density of approximately 10^7 CFU/ml. The size of the inoculum was determined by viability counting on 5% blood agar.
Neutropenia was introduced by pretreating the mice with cyclophosphamide (6 mg daily for three days). […] Antibiotic therapy was initiated just after inoculation. Linezolid and compound 3 was administered subcutaneously in the neck region in a volume of 0.5 ml per dose. 3 mice were in each treatment group. Inoculated untreated control mice were included in all trials. (Method reference: Erlandsdottir et al; Antimicrob Agents Chemother. 2001 April; 45(4):1078-85)
The effects of the various treatment regimens were determined during 5 h of treatment by evaluation of bacterial counts in the peritoneal fluid. After the mice were killed, peritoneal washes were performed by injecting 2 ml of sterile saline intraperitoneally, followed by massage of the abdomen and then opening of the peritoneum to collect the fluid. Peritoneal fluids were immediately diluted 10-fold in saline, from which 20 μl was plated onto 5% blood agar plates in spots, with subsequent counting of colonies after incubation overnight at 35° C. The lowest detection levels for bacterial counts in blood and peritoneal fluid were 50 and 250 CFU/ml, respectively.

[2] = test system: Multiresistant clinical isolates E. coli; assay: Maximal reversal of resistance and synergistic effect (Table 4c); type: cell-based; conditions: for Fold enhanced, compound 1 1.0 ug/ml: enhancement of antibiotic by compound 1 at 1.0 ug/ml; for Fold enhanced, compound 2 2.0 ug/ml: enhancement of antibiotic by compound 2 at 2.0 ug/ml; for Fold enhanced, compound 3 0.6 ug/ml: enhancement of antibiotic by compound 3 at 0.6 ug/ml; for MIC plus compound 1 1.0 ug/ml: MIC of antibiotic in presence of compound 1 at 1.0 ug/ml; for MIC plus compound 2 2.0 ug/ml: MIC of antibiotic in presence of compound 2 at 2.0 ug/ml; for MIC plus compound 3 0.6 ug/ml: MIC of antibiotic in presence of compound 3 at 0.6 ug/ml
Procedure: (§1) The maximal obtained reversal of resistance and synergistic effect was tested as previously described.
Strains: Multiresistant clinical isolates E. coli, Ten strains in each group.

[3] = test system: Multiresistant clinical isolates of S. aureus and S. epidermidis; assay: Maximal reversal of resistance and synergistic effect (Table 4b); type: cell-based; conditions: for MIC plus compound 1 0.60 ug/ml: MIC of antibiotic in presence of compound 1 at 0.60 ug/ml; for MIC plus compound 1 0.60 ug/ml / MIC compound 2 0.98 ug/ml / MIC plus compound 3 0.30 ug/ml / MIC plus compound 4 0.75 ug/ml / MIC alone: median; for MIC compound 2 0.98 ug/ml: MIC of antibiotic in presence of compound 2 at 0.98 ug/ml; for MIC plus compound 3 0.30 ug/ml: MIC of antibiotic in presence of compound 3 at 0.30 ug/ml; for MIC plus compound 4 0.75 ug/ml: MIC of antibiotic in presence of compound 4 at 0.75 ug/ml; for MIC alone: antibiotic alone, ten strains in each group; for Fold enhanced, compound 1 0.60 ug/ml: enhancement of antibiotic by compound 1 at 0.60 ug/ml; for Fold enhanced, compound 2 0.98 ug/ml: enhancement of antibiotic by compound 2 at 0.98 ug/ml; for Fold enhanced, compound 3 0.30 ug/ml: enhancement of antibiotic by compound 3 at 0.30 ug/ml; for Fold enhanced, compound 4 0.75 ug/ml: enhancement of antibiotic by compound 4 at 0.75 ug/ml
Procedure: as §1
Strains: Multiresistant clinical isolates of S. aureus and S. epidermidis, Ten strains in each group.

[4] = treatment 0 and 2 hours, sampling 5 hours, sub-therapeutic doses as in Table 9, individual mice
[5] = antibiotic alone, median, ten strains

Compound	Fold enhanced, compound 1 1.0 ug/ml [2]	Fold enhanced, compound 2 2.0 ug/ml [2]	Fold enhanced, compound 3 0.6 ug/ml [2]	MIC plus compound 1 0.60 ug/ml [3] [µg/mL]	MIC compound 2 0.98 ug/ml [3] [µg/mL]	MIC plus compound 3 0.30 ug/ml [3] [µg/mL]	MIC plus compound 4 0.75 ug/ml [3] [µg/mL]	MIC alone [3] [µg/mL]	Fold enhanced, compound 1 0.60 ug/ml [3]	Fold enhanced, compound 2 0.98 ug/ml [3]	Fold enhanced, compound 3 0.30 ug/ml [3]	Fold enhanced, compound 4 0.75 ug/ml [3]	MIC plus compound 1 1.0 ug/ml ([2]; median)	MIC plus compound 2 2.0 ug/ml ([2]; median)	MIC plus compound 3 0.6 ug/ml ([2]; median) [µg/mL]	MIC alone [2, 5] [µg/mL]	also measured
CC(=O)NC[C@H]1CN(c2ccc(N3CCOCC3)c(F)c2)C(=O)O1 [Linezolid]	–	–	–	–	–	–	–	–	–	–	–	–	–	–	–	–	Effect on the infection / bacteria in mouse peritoneum ([1]; sub-therapeutic dose alone): no effect on the infection; score at sampling ([1]; treatment 0 and 2 hours, sampling 5 hours, Linezolid 1 mg/ml 0.5 ml, Compound 3 0.1 mg/ml 0.5, combination Linezolid 2 mg/ml (0.25 ml) and compound 3 0.2 mg/ml (0.25 ml), individual mice): 2 and 3 (2×); Cfu/ml peritoneum [1, 4]: 2.08E+09 Cfu/ml and 2.20E+09 Cfu/ml and 2.40E+09 Cfu/ml; log (cfu/ml) peritoneum [1, 4]: 9.32 log (cfu/ml) and 9.34 log (cfu/ml) and 9.38 log (cfu/ml)
CCN1CCN(C(=O)N[C@@H](C(=O)N[C@@H]2C(=O)N3[C@@H]2SC(C)(C)[C@@H]3C(=O)O)c2ccccc2)C(=O)C1=O [Piperacillin]	4 (4)	4 (4)	8	–	–	–	–	–	–	–	–	–	–	–	–	–	MIC ([2]; Escherichia coli, antibiotic alone, median, ten strains): 16 µg/mL
CN(C)[C@@H]1C(=O)C(C(N)=O)=C(O)[C@@]2(O)C(=O)C3=C(O)c4c(O)cccc4[C@@](C)(O)[C@H]3C[C@@H]12 [Tetracyclin]	4 (4)	4 (4)	8	4	8	2	8	16	2	2	4	2	4 (4) μg/ml	4 (4) μg/ml	2	16	–
Dicloxacillin & Methicillin	–	–	–	4	4	2	4	64	16	16	32	16	–	–	–	–	–
Gentamicin	2	2	4	4	4	2	4	8	2	2	4	2	4 µg/mL	4 µg/mL	2	8	–
